Laboratory results published in US12209102B2, “Heterocyclic compounds and uses thereof” (Kumquat Biosciences Inc., priority 2022, dated 2025).
pIC50: −log10 of the molar value.

Columns and labels:
GP2D cells = experiment: Ras cellular assay, growth of cells with K-Ras G12D mutation (CellTiter-Glo); assay type: cell-based; details: cell growth, Example 9, G12D mutation, read-out: IC50 against GP2D cells
SW620 cells = experiment: Ras cellular assay, growth of cells with K-Ras G12V mutation (CellTiter-Glo); assay type: cell-based; details: Homo sapiens, SW-620; cell growth, Example 9, G12V mutation; read-out: IC50 against SW620 cells
Summary of the method: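 IC50 values came from a four-parameter fit of CellTiter-Glo viability, read roughly 6 days after dosing with e.g. a 10-point threefold dilution series. G12V-mutant SW620 cells (e.g. 800 per well) had been plated the previous day in RPMI-1640/10% heat-inactivated FBS, on tissue culture-treated or ultra-low attachment plates.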

K-Ras G12S = molecular target: T1, K-Ras G12S (Homo sapiens, UniProt P01116, G12S); experiment: HTRF resonance energy transfer assay, K-Ras G12S / SOS1 interaction; assay type: biochemical; details: HTRF assay of Example 5; read-out: IC50 against K-Ras G12S
T1 construct: made in house; host or cells: E. coli BL21 (DE3)
T1 sequence (P01116 1-188 isoform P01116-2 G12S): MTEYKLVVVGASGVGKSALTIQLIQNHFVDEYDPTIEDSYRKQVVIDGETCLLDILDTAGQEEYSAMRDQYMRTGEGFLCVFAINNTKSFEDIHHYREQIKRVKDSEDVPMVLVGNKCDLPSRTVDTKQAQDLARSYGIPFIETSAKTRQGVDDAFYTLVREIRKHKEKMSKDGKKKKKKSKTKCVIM
Summary of the method: (§1)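 Buffer about 5 mM HEPES pH 7.4 with ~150 mM NaCl, ~1 mM DTT, 0.05% BSA, 0.0025% (v/v) Igepal. Protein constructs used at molarity matching the IC50 range studied (e.g. ~500 nM). FRET between tagged K-Ras and hSOS1 measured after short incubation.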

K-Ras WT = molecular target: T2, K-Ras WT (Homo sapiens, UniProt P01116); experiment: HTRF resonance energy transfer assay, K-Ras WT / SOS1 interaction; assay type: biochemical; details: HTRF assay of Example 5; read-out: IC50 against K-Ras WT
T2 construct: made in house; host or cells: E. coli BL21 (DE3)
T2 sequence (P01116 1-188 isoform P01116-2): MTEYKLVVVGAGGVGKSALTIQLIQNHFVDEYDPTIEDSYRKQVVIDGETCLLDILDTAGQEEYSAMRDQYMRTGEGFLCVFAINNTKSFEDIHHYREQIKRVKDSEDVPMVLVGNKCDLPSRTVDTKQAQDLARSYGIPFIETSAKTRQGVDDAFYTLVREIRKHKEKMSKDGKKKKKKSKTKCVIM
Summary of the method: as §1

K-Ras G12D = molecular target: T3, K-Ras G12D (Homo sapiens, UniProt P01116, G12D); experiment: HTRF resonance energy transfer assay, K-Ras G12D / SOS1 interaction; assay type: biochemical; details: HTRF assay of Example 5; read-out: IC50 against K-Ras G12D
T3 construct: made in house; host or cells: E. coli BL21 (DE3)
T3 sequence (P01116 1-188 isoform P01116-2 G12D): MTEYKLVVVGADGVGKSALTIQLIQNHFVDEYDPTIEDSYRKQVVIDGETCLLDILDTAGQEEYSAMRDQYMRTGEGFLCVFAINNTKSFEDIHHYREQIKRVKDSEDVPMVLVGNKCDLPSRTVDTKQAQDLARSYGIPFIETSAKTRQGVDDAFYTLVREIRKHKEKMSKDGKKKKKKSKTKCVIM
Summary of the method: as §1

A549 cells = experiment: Ras cellular assay, growth of cells with K-Ras G12S mutation (CellTiter-Glo); assay type: cell-based; details: Homo sapiens, cell growth, Example 9, G12S mutation, read-out: IC50 against A549 cells
Summary of the method: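 Growth inhibition IC50 values come from four-parameter fits of CellTiter-Glo luminescence, read about 6 days after compound addition. G12S-mutant A549 cells (e.g. 800/well, RPMI-1640 + 10% heat-inactivated FBS) were plated in tissue-culture-treated or ultra-low-attachment 384-well format. Dosing began the following day with serial dilutions, e.g. 10 points, 3-fold.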

K-Ras G12V = molecular target: T4, K-Ras G12V (Homo sapiens, UniProt P01116, G12V); experiment: HTRF resonance energy transfer assay, K-Ras G12V / SOS1 interaction; assay type: biochemical; details: HTRF assay of Example 5; read-out: IC50 against K-Ras G12V
T4 construct: made in house; host or cells: E. coli BL21 (DE3)
T4 sequence (P01116 1-188 isoform P01116-2 G12V): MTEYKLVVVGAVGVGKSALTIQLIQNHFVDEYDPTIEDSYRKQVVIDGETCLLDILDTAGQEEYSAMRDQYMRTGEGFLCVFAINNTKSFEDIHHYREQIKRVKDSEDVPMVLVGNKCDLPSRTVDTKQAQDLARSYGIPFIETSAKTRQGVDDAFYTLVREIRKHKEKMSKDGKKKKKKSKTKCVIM
Summary of the method: as §1

SMILES	pIC50 (GP2D cells)	pIC50 (SW620 cells)	pIC50 (K-Ras G12S)	pIC50 (K-Ras WT)	pIC50 (K-Ras G12D)	pIC50 (A549 cells)	pIC50 (K-Ras G12V)
CO[C@@H](C)C(=O)N1CCC(N2CCOc3c(Cl)c(-c4ccc(F)c5sc(N)c(C#N)c45)c(F)c4nc(OC[C@@]56CCCN5C[C@H](F)C6)nc2c34)C1 (stereo partly drawn) [Compound 742, 2-amino-4-(8-chloro-10-fluoro-2-(((2R,7aS)-2-fluorotetrahydro-1H-pyrrolizin-7a(5H)-yl)methoxy)-4-(1-((S)-2-methoxypropanoyl)pyrrolidin-3-yl)-5,6-dihydro-4H-[1,4]oxazepino[5,6,7-de]quinazolin-9-yl)-7-fluorobenzo[b]thiophene-3-carbonitrile]	> 6.30	> 5.30	> 7.00	> 7.00	> 7.00	> 5.30	> 7.00
CC(C)(O)C1COc2c(Cl)c(-c3ccc(F)c4sc(N)c(C#N)c34)c(F)c3nc(OC[C@@]45CCCN4C[C@H](F)C5)nc(c23)N1CC(F)F (stereo partly drawn) [Compound 755, 2-amino-4-(8-chloro-4-(2,2-difluoroethyl)-10-fluoro-2-(((2R,7aS)-2-fluorotetrahydro-1H-pyrrolizin-7a(5H)-yl)methoxy)-5-(2-hydroxypropan-2-yl)-5,6-dihydro-4H-[1,4]oxazepino[5,6,7-de]quinazolin-9-yl)-7-fluorobenzo[b]thiophene-3-carbonitrile]	> 6.30	> 5.30	> 7.00	> 7.00	> 7.00	> 5.30	> 7.00
N#Cc1c(N)sc2c(F)ccc(-c3c(Cl)c4c5c(nc(OC[C@@]67CCCN6C[C@H](F)C7)nc5c3F)N(C3CCN(C(=O)C5COC5)C3)CCO4)c12 (stereo partly drawn) [Compound 757, 2-amino-4-(8-chloro-10-fluoro-2-(((2R,7aS)-2-fluorotetrahydro-1H-pyrrolizin-7a(5H)-yl)methoxy)-4-(1-(oxetane-3-carbonyl)pyrrolidin-3-yl)-5,6-dihydro-4H-[1,4]oxazepino[5,6,7-de]quinazolin-9-yl)-7-fluorobenzo[b]thiophene-3-carbonitrile]	> 6.30	> 5.30	> 7.00	> 7.00	> 7.00	> 5.30	> 7.00
Cn1cc(N2CCOc3c(Cl)c(-c4ccc(F)c5sc(N)c(C#N)c45)c(F)c4nc(OC[C@@]56CCCN5C[C@H](F)C6)nc2c34)cn1 [Compound 765, 2-amino-4-(8-chloro-10-fluoro-2-(((2R,7aS)-2-fluorotetrahydro-1H-pyrrolizin-7a(5H)-yl)methoxy)-4-(1-methyl-1H-pyrazol-4-yl)-5,6-dihydro-4H-[1,4]oxazepino[5,6,7-de]quinazolin-9-yl)-7-fluorobenzo[b]thiophene-3-carbonitrile]	> 6.30	> 5.30	> 7.00	> 7.00	> 7.00	> 5.30	> 7.00
C#Cc1c(F)ccc2cc(O)cc(-c3nc4c5c(nc(OC[C@@]67CCCN6C[C@H](F)C7)nc5c3F)N(C3CCOC3)CCN4)c12 (stereo partly drawn) [Compound 771, 5-ethynyl-6-fluoro-4-(4-fluoro-2-(((2R,7aS)-2-fluorotetrahydro-1H-pyrrolizin-7a(5H)-yl)methoxy)-10-(tetrahydrofuran-3-yl)-7,8,9,10-tetrahydro-1,3,6,7,10-pentaazacyclohepta[de]naphthalen-5-yl)naphthalen-2-ol]	> 6.30	> 5.30	> 7.00	> 7.00	> 7.00	> 5.30	> 7.00
N#Cc1c(N)sc2c(F)ccc(-c3c(Cl)c4c5c(nc(OC[C@@]67CCCN6C[C@H](F)C7)nc5c3F)N(C3CCN(C(=O)C[C@@H]5CCCO5)C3)CCO4)c12 (stereo partly drawn) [Compound 777, 2-amino-4-(8-chloro-10-fluoro-2-(((2R,7aS)-2-fluorotetrahydro-1H-pyrrolizin-7a(5H)-yl)methoxy)-4-(1-(2-((S)-tetrahydrofuran-2-yl)acetyl)pyrrolidin-3-yl)-5,6-dihydro-4H-[1,4]oxazepino[5,6,7-de]quinazolin-9-yl)-7-fluorobenzo[b]thiophene-3-carbonitrile]	> 6.30	> 5.30	> 7.00	> 7.00	> 7.00	> 5.30	> 7.00
N#Cc1c(N)sc2c(F)ccc(-c3c(Cl)c4c5c(nc(OC[C@@]67CCCN6C[C@H](F)C7)nc5c3F)N(C3CCN(C(=O)COC(F)F)C3)CCO4)c12 (stereo partly drawn) [Compound 785, 2-amino-4-(8-chloro-4-(1-(2-(difluoromethoxy)acetyl)pyrrolidin-3-yl)-10-fluoro-2-(((2R,7aS)-2-fluorotetrahydro-1H-pyrrolizin-7a(5H)-yl)methoxy)-5,6-dihydro-4H-[1,4]oxazepino[5,6,7-de]quinazolin-9-yl)-7-fluorobenzo[b]thiophene-3-carbonitrile]	> 6.30	> 5.30	> 7.00	> 7.00	> 7.00	> 5.30	> 7.00
N#Cc1c(N)sc2c(F)ccc(-c3c(Cl)c4c5c(nc(OC[C@@]67CCCN6C[C@H](F)C7)nc5c3F)N([C@H]3CCOC3)CCO4)c12 [Compound 793, 2-amino-4-(8-chloro-10-fluoro-2-(((2R,7aS)-2-fluorotetrahydro-1H-pyrrolizin-7a(5H)-yl)methoxy)-4-((S)-tetrahydrofuran-3-yl)-5,6-dihydro-4H-[1,4]oxazepino[5,6,7-de]quinazolin-9-yl)-7-fluorobenzo[b]thiophene-3-carbonitrile]	> 6.30	> 5.30	> 7.00	> 7.00	> 7.00	> 5.30	> 7.00
N#Cc1c(N)sc2c(F)ccc(-c3c(Cl)c4c5c(nc(OC[C@@]67CCCN6C[C@H](F)C7)nc5c3F)N([C@@H]3CCN(C(=O)C(F)F)C3)CCO4)c12 [Compound 796, 2-amino-4-(8-chloro-4-((R)-1-(2,2-difluoroacetyl)pyrrolidin-3-yl)-10-fluoro-2-(((2R,7aS)-2-fluorotetrahydro-1H-pyrrolizin-7a(5H)-yl)methoxy)-5,6-dihydro-4H-[1,4]oxazepino[5,6,7-de]quinazolin-9-yl)-7-fluorobenzo[b]thiophene-3-carbonitrile]	> 6.30	> 5.30	> 7.00	> 7.00	> 7.00	> 5.30	> 7.00
N#Cc1c(N)sc2c(F)ccc(-c3c(Cl)c4c5c(nc(OC[C@@]67CCCN6C[C@H](F)C7)nc5c3F)N(CC3(C#N)CC3)CCO4)c12 [Compound 798, 2-amino-4-(8-chloro-4-((1-cyanocyclopropyl)methyl)-10-fluoro-2-(((2R,7aS)-2-fluorotetrahydro-1H-pyrrolizin-7a(5H)-yl)methoxy)-5,6-dihydro-4H-[1,4]oxazepino[5,6,7-de]quinazolin-9-yl)-7-fluorobenzo[b]thiophene-3-carbonitrile]	> 6.30	> 5.30	> 7.00	> 7.00	> 7.00	> 5.30	> 7.00
N#Cc1c(N)sc2c(F)ccc(-c3c(Cl)c4c5c(nc(OC[C@@]67CCCN6C[C@H](F)C7)nc5c3F)N(C3COCCOC3)CCO4)c12 [Compound 803, 2-amino-4-(8-chloro-4-(1,4-dioxepan-6-yl)-10-fluoro-2-(((2R,7aS)-2-fluorotetrahydro-1H-pyrrolizin-7a(5H)-yl)methoxy)-5,6-dihydro-4H-[1,4]oxazepino[5,6,7-de]quinazolin-9-yl)-7-fluorobenzo[b]thiophene-3-carbonitrile]	> 6.30	> 5.30	> 7.00	> 7.00	> 7.00	> 5.30	> 7.00
N#Cc1c(N)sc2c(F)ccc(-c3c(Cl)c4c5c(nc(OC[C@@]67CCCN6C[C@H](F)C7)nc5c3F)N(CCC(F)F)CCO4)c12 [Compound 807, 2-amino-4-(8-chloro-4-(3,3-difluoropropyl)-10-fluoro-2-(((2R,7aS)-2-fluorotetrahydro-1H-pyrrolizin-7a(5H)-yl)methoxy)-5,6-dihydro-4H-[1,4]oxazepino[5,6,7-de]quinazolin-9-yl)-7-fluorobenzo[b]thiophene-3-carbonitrile]	> 6.30	> 5.30	> 7.00	> 7.00	> 7.00	> 5.30	> 7.00
